Experimental data as given in ChEMBL document CHEMBL5291721, “A preclinical secondary pharmacology resource illuminates target-adverse drug reaction associations of marketed drugs” (Nat Commun, 2023).

Columns and labels:
Histamine H1 receptor [1] = target: T1, Histamine H1 receptor (Homo sapiens, UniProt P35367); type: functional, cell-based
Histamine H1 receptor [2] = target: T1, Histamine H1 receptor; type: functional, cell-based; remark: listed apart in the source
[3] = target: Gamma-aminobutyric acid receptor subunit alpha-1/alpha-2/beta-2/gamma-2 (Homo sapiens, UniProt P14867+P18507+P47869+P47870); type: functional, cell-based
B1 bradykinin receptor = target: T2, B1 bradykinin receptor (Homo sapiens, UniProt P46663)
T2 sequence (P46663 whole entry): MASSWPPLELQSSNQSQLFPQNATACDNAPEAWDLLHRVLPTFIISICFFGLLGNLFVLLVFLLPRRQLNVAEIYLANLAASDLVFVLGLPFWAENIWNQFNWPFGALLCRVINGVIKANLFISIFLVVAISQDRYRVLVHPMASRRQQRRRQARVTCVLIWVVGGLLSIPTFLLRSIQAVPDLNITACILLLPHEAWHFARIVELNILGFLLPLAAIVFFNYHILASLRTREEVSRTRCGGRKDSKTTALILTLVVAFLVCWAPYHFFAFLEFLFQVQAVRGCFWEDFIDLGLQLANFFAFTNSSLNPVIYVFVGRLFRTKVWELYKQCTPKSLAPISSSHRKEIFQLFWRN

Substance-P receptor = Substance-P receptor (Homo sapiens, UniProt P25103)
Sequence of Substance-P receptor (P25103 whole entry): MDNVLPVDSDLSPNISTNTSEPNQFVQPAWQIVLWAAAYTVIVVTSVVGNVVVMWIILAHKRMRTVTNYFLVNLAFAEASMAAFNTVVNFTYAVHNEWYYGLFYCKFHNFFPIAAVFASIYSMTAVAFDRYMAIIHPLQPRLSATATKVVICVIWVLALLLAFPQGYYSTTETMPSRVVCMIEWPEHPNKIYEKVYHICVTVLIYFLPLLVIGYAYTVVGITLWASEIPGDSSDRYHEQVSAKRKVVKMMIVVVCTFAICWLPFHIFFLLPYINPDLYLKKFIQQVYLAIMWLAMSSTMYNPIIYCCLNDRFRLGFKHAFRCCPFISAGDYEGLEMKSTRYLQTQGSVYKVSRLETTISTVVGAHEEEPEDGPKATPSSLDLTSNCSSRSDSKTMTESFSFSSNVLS

[4] = target: T3, Alpha-1A adrenergic receptor (Homo sapiens, UniProt P35348)
T3 sequence (P35348 whole entry): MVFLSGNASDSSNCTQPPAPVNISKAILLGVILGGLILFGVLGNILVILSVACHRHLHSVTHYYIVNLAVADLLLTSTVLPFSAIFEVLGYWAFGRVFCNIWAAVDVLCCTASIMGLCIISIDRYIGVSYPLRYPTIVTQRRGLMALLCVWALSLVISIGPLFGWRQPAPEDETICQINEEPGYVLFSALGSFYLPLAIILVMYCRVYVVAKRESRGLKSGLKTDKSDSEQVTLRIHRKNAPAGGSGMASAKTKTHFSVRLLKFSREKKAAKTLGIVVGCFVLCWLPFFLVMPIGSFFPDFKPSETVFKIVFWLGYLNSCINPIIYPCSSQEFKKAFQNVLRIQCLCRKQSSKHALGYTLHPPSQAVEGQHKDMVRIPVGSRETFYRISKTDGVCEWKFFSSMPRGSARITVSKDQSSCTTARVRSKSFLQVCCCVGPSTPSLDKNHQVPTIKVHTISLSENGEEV

[5] = target: T4, Neuropeptide Y receptor type 2 (Homo sapiens, UniProt P49146)
T4 sequence (P49146 whole entry): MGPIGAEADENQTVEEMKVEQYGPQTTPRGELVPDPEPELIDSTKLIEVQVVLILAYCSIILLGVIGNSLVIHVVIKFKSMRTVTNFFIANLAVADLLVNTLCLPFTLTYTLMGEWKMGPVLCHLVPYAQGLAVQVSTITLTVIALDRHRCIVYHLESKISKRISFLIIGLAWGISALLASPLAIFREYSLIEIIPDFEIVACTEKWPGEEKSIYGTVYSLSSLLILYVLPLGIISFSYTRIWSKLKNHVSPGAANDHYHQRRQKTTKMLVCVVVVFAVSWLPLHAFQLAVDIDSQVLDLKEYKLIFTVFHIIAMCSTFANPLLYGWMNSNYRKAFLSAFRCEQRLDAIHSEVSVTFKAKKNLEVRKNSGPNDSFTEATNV

[6] = target: Beta-3 adrenergic receptor (Homo sapiens, UniProt P13945)
Sequence of Beta-3 adrenergic receptor (P13945 whole entry): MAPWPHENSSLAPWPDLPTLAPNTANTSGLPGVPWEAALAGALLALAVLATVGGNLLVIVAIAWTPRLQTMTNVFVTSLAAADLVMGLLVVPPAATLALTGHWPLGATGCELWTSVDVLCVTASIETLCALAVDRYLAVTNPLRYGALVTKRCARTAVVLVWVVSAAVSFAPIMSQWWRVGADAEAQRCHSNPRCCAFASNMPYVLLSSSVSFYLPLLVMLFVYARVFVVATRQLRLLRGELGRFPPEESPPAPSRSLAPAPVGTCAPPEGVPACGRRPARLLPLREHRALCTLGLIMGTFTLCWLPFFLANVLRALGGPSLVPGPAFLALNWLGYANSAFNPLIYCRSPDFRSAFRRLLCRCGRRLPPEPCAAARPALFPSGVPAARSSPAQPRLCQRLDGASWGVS

[7] = target: Voltage-dependent N-type calcium channel subunit alpha-1B (Rattus norvegicus, UniProt Q02294); type: functional
Sequence of Voltage-dependent N-type calcium channel subunit alpha-1B (Q02294 whole entry): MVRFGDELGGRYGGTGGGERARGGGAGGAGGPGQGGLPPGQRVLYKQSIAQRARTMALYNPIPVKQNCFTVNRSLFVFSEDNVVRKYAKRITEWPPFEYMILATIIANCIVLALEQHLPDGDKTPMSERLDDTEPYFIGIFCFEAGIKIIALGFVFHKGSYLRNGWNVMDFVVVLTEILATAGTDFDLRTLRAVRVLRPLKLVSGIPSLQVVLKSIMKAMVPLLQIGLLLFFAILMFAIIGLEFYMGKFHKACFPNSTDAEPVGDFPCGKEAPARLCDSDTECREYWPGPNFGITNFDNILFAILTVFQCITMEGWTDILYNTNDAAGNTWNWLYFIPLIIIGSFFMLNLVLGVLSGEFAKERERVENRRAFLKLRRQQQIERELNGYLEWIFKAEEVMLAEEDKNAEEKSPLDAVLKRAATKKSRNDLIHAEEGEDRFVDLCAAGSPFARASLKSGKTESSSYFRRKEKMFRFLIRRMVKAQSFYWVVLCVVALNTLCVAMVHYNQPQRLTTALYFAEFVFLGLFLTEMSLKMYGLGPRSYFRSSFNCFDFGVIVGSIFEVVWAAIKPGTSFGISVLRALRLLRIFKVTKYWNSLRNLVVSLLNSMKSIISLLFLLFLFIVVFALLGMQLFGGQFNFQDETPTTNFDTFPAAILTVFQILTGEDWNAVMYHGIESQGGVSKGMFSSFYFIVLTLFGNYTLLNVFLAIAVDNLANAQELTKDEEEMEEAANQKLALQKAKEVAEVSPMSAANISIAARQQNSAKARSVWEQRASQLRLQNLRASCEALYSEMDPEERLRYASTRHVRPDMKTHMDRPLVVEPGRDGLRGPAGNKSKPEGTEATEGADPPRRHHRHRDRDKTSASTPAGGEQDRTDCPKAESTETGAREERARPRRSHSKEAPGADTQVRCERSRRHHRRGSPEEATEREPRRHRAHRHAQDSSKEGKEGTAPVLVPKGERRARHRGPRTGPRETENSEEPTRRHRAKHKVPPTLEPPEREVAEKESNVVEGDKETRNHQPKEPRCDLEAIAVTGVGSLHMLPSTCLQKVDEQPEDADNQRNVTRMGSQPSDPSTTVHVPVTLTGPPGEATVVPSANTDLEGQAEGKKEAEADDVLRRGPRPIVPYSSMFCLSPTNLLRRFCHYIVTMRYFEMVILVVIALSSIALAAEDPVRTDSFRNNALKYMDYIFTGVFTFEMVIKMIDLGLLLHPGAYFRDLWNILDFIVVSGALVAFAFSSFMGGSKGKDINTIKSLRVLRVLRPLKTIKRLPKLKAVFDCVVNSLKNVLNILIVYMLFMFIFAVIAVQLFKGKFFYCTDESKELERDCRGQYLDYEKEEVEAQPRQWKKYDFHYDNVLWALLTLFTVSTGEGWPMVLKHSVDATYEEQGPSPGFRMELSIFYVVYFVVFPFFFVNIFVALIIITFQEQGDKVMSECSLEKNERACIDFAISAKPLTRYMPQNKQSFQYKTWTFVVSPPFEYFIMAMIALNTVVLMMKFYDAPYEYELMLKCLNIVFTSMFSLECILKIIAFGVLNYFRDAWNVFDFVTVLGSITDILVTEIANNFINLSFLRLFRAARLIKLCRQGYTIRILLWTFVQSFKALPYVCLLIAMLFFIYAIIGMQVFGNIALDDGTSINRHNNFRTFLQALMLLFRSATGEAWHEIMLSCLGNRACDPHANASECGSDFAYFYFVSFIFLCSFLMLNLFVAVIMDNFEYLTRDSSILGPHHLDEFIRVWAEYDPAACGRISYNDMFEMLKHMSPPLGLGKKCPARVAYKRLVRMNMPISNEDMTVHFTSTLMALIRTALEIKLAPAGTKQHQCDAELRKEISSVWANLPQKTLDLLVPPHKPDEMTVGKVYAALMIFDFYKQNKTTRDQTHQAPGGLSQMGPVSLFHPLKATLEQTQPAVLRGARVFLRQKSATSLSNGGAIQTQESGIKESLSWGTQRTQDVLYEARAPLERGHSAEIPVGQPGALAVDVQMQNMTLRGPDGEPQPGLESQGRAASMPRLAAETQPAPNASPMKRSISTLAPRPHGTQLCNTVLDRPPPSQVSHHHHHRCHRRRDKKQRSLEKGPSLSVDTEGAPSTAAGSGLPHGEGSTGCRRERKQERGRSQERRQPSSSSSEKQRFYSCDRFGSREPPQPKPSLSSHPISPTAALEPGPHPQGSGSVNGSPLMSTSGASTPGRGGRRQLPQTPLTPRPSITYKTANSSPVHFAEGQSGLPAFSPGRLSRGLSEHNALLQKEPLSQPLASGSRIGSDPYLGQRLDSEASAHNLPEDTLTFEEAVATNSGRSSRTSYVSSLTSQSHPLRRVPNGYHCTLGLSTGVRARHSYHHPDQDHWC

[8] = target: T5, Gastric inhibitory polypeptide receptor (Homo sapiens, UniProt P48546)
T5 sequence (P48546 whole entry): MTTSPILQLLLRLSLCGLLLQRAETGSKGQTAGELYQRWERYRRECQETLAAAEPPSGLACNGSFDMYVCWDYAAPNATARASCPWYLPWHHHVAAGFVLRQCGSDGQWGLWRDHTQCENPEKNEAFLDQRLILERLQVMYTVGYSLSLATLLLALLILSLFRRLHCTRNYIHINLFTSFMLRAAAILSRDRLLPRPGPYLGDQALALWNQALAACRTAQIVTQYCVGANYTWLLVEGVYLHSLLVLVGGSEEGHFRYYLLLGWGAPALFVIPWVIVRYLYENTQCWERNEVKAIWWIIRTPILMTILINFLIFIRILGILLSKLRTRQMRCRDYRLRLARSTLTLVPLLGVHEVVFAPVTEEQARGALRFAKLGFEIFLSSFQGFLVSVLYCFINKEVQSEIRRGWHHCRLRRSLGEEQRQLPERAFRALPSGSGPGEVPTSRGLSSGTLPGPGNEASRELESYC

[9] = target: 5-hydroxytryptamine receptor 7 (Homo sapiens, UniProt P34969)
Sequence of 5-hydroxytryptamine receptor 7 (P34969 whole entry): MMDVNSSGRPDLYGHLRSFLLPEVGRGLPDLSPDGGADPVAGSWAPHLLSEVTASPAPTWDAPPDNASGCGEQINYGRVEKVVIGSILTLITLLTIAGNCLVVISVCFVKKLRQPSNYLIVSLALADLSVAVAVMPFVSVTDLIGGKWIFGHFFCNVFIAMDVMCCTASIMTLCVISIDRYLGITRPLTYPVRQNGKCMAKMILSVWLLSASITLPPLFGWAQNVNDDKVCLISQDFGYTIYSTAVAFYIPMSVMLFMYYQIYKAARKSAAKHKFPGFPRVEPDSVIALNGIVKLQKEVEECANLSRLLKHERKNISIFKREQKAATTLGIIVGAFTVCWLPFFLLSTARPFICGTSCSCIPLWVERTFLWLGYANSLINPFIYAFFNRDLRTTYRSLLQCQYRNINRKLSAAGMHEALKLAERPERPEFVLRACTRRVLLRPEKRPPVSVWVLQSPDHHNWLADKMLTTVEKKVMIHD
Further: assay procedure not described here.

T1 sequence (P35367 whole entry): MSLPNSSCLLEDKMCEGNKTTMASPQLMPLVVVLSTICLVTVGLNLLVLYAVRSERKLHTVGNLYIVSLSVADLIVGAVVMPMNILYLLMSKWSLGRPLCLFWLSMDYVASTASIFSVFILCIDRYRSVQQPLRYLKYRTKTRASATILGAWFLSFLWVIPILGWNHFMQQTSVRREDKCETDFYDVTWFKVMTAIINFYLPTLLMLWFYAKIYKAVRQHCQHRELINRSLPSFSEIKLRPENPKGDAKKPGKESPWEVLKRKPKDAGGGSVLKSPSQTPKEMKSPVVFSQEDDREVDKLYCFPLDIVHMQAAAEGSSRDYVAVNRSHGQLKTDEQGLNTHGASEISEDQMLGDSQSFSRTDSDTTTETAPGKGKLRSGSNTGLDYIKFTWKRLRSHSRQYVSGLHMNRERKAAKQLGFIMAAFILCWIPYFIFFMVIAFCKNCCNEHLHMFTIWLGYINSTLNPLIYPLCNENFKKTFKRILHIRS

Q: With CCC1(CC)C(=O)NCC(C)C1=O (stereo not drawn) [METHYPRYLON] as the compound, how does the AC50 (Histamine H1 receptor [1]) read?
A: > 30 µM

Q: What about the AC50 (Histamine H1 receptor [2]) of the same compound?
A: > 30 µM

Q: And the AC50 [3]?
A: > 30 µM

Q: Which results are given for COc1ccc2c3c1O[C@H]1[C@@H](O)C=C[C@H]4[C@@H](C2)N(C)CC[C@@]341 [CODEINE]?
A: AC50 (B1 bradykinin receptor): > 30 µM; AC50 (Substance-P receptor): > 10 µM; AC50 [4]: > 10 µM; AC50 [5]: > 30 µM; AC50 [6]: > 30 µM; AC50 [7]: > 10 µM; AC50 [8]: > 30 µM; AC50 [9]: > 10 µM

Q: Which AC50 (Histamine H1 receptor [1]) does the source give for CN1CCC(=C2c3ccccc3CCc3sccc32)CC1 [PIZOTYLINE] here?
A: > 30 µM

Q: What about the AC50 (Histamine H1 receptor [2]) of the same compound?
A: 0.0681 µM

Q: And the AC50 [3]?
A: > 30 µM

Q: Which results are given for N#Cc1ccc([C@H]2CCc3cncn32)c(F)c1 [OSILODROSTAT]?
A: AC50 (B1 bradykinin receptor): > 10 µM; AC50 (Substance-P receptor): > 10 µM; AC50 [4]: > 10 µM; AC50 [5]: > 10 µM; AC50 [7]: > 10 µM; AC50 [9]: > 10 µM

Q: How did the AC50 (B1 bradykinin receptor) turn out when CNS(=O)(=O)Cc1ccc2[nH]cc(CCN(C)C)c2c1 was run?
A: > 30 µM

Q: And the AC50 [4]?
A: > 10 µM

Q: What about the AC50 [5] of the same compound?
A: > 30 µM

Q: What about the AC50 [6] of the same compound?
A: > 30 µM

Q: And the AC50 [3]?
A: > 30 µM

Q: What about the AC50 [7] of the same compound?
A: > 10 µM

Q: And the AC50 [8]?
A: > 30 µM

Q: And the AC50 [9]?
A: 4.67 µM

Q: With CCCN(CCC)C(=O)C(CCC(=O)O)NC(=O)c1ccccc1 (stereo not drawn) [PROGLUMIDE] as the compound, how does the AC50 (B1 bradykinin receptor) read?
A: > 30 µM

Q: What about the AC50 (Substance-P receptor) of the same compound?
A: > 10 µM

Q: And the AC50 [5]?
A: > 30 µM

Q: What about the AC50 [6] of the same compound?
A: > 30 µM

Q: And the AC50 [7]?
A: > 10 µM

Q: What about the AC50 [8] of the same compound?
A: > 30 µM

Q: How did the AC50 (B1 bradykinin receptor) turn out when CN1CCN(CC/C=C2/c3ccccc3Sc3ccc(S(=O)(=O)N(C)C)cc32)CC1 [THIOTHIXENE] was run?
A: > 30 µM

Q: What about the AC50 (Substance-P receptor) of the same compound?
A: 3.84 µM

Q: And the AC50 [4]?
A: 0.0624 µM

Q: And the AC50 [5]?
A: > 30 µM

Q: And the AC50 [6]?
A: > 30 µM

Q: And the AC50 [7]?
A: > 10 µM

Q: What about the AC50 [8] of the same compound?
A: > 30 µM

Q: What about the AC50 [9] of the same compound?
A: 0.254 µM

Q: Which AC50 (Histamine H1 receptor [1]) does the source give for CC[C@@H]1C(=O)OC[C@@H]1Cc1cncn1C [PILOCARPINE] here?
A: > 30 µM

Q: And the AC50 (Histamine H1 receptor [2])?
A: > 30 µM

Q: And the AC50 [7]?
A: > 10 µM

Q: For O=C(NCCNCC(O)COc1ccc(O)cc1)N1CCOCC1 (stereo not drawn) [XAMOTEROL], which AC50 (Histamine H1 receptor [1]) is on record?
A: > 30 µM

Q: And the AC50 (Histamine H1 receptor [2])?
A: > 30 µM

Q: And the AC50 [3]?
A: > 30 µM

Q: NCC(=O)CCC(=O)O [AMINOLEVULINIC ACID] was tested. Which AC50 (Histamine H1 receptor [1]) did it give?
A: > 30 µM

Q: What about the AC50 (Histamine H1 receptor [2]) of the same compound?
A: > 30 µM

Q: And the AC50 [3]?
A: > 30 µM

Q: With CCCCc1ncc(/C=C(\Cc2cccs2)C(=O)O)n1Cc1ccc(C(=O)O)cc1 [EPROSARTAN] as the compound, how does the AC50 (Histamine H1 receptor [1]) read?
A: > 30 µM

Q: And the AC50 (B1 bradykinin receptor)?
A: > 30 µM

Q: And the AC50 (Histamine H1 receptor [2])?
A: > 30 µM

Q: And the AC50 (Substance-P receptor)?
A: > 10 µM

Q: And the AC50 [4]?
A: > 10 µM

Q: What about the AC50 [5] of the same compound?
A: > 30 µM

Q: What about the AC50 [6] of the same compound?
A: > 30 µM

Q: And the AC50 [7]?
A: > 10 µM

Q: And the AC50 [8]?
A: > 30 µM

Q: And the AC50 [9]?
A: > 10 µM

Q: Which results are given for CCc1c(Cl)c(O)c(Cl)c(O)c1C(=O)O[C@H]1[C@H](O)[C@H](OC)[C@H](OC/C2=C\C=C\C[C@H](O)/C(C)=C/[C@H](CC)[C@@H](O[C@@H]3OC(C)(C)[C@@H](OC(=O)C(C)C)[C@H](O)[C@@H]3O)/C(C)=C/C(C)=C/C[C@@H]([C@@H](C)O)OC2=O)O[C@@H]1C [FIDAXOMICIN]?
A: AC50 (B1 bradykinin receptor): > 30 µM; AC50 (Substance-P receptor): 5.92 µM; AC50 [4]: > 10 µM; AC50 [5]: > 30 µM; AC50 [6]: > 30 µM; AC50 [7]: > 10 µM; AC50 [8]: > 30 µM

Q: How did the AC50 [3] turn out when C/C(O)=C(\C#N)C(=O)Nc1ccc(C(F)(F)F)cc1 [TERIFLUNOMIDE] was run?
A: > 30 µM

Q: CCN(CC)C(=O)N[C@H]1C[C@@H]2c3cccc4[nH]cc(c34)C[C@H]2N(C)C1 [TERGURIDE] was tested. Which AC50 (Histamine H1 receptor [1]) did it give?
A: > 30 µM

Q: And the AC50 (Histamine H1 receptor [2])?
A: 7.49 µM

Q: What about the AC50 [3] of the same compound?
A: > 30 µM

Q: With CCN1CCN(C(=O)N[C@@H](C(=O)N[C@@H]2C(=O)N3C(C(=O)O)=C(CSc4nnnn4C)CS[C@H]23)c2ccc(O)cc2)C(=O)C1=O [CEFOPERAZONE] as the compound, how does the AC50 [3] read?
A: > 30 µM

Q: CC(C)(C)c1cc(C(C)(C)C)c(NC(=O)c2c[nH]c3ccccc3c2=O)cc1O [IVACAFTOR] was tested. Which AC50 [6] did it give?
A: 4.4 µM

Q: What about the AC50 [7] of the same compound?
A: > 10 µM

Q: What does the source list for CC(C)OC(=O)CCC/C=C\C[C@@H]1[C@@H](CC[C@@H](O)CCc2ccccc2)[C@H](O)C[C@@H]1O [LATANOPROST]?
A: AC50 (Histamine H1 receptor [1]): > 30 µM; AC50 (Histamine H1 receptor [2]): > 30 µM; AC50 [3]: > 30 µM

Q: CN1C(=O)C(O)N=C(c2ccccc2)c2cc(Cl)ccc21 (stereo not drawn) [TEMAZEPAM] was tested. Which AC50 (B1 bradykinin receptor) did it give?
A: > 30 µM

Q: And the AC50 (Substance-P receptor)?
A: > 10 µM

Q: What about the AC50 [4] of the same compound?
A: > 10 µM

Q: And the AC50 [5]?
A: > 30 µM

Q: What about the AC50 [6] of the same compound?
A: > 30 µM

Q: And the AC50 [7]?
A: > 10 µM

Q: And the AC50 [8]?
A: > 30 µM

Q: Which results are given for CCCc1nc(C(C)(C)O)c(C(=O)OCc2oc(=O)oc2C)n1Cc1ccc(-c2ccccc2-c2nnn[nH]2)cc1 [OLMESARTAN MEDOXOMIL]?
A: AC50 (B1 bradykinin receptor): > 50 µM; AC50 (Substance-P receptor): > 10 µM; AC50 [4]: > 10 µM; AC50 [5]: > 50 µM; AC50 [6]: > 30 µM; AC50 [7]: > 10 µM; AC50 [8]: > 30 µM; AC50 [9]: > 10 µM
